{
  "source": "patent US20180206486A1",
  "about": "“Stable Agricultural Compositions” (Ceradis B.V., priority 2015, published 2018)",
  "origin": "cited, not measured here",
  "key": {"[1]": {"test_system": "downy mildew (Plasmopara viticola)", "details": "in vivo"}, "rodents": {"test_system": "rodents", "details": "after oral and dermal administration and inhalatory exposure"}},
  "data": [
    {"substance": "Potassium phosphite", "values": [
      {"measurement": "effectiveness as fungicide against downy mildew", "setting": "[1]", "result": "effective"},
      {"measurement": "toxicity in rodents", "setting": "rodents", "result": "low toxicity"}
    ]}
  ]
}
